# According to US11370778B2, “Bis(pentahydroxyhexyl)amino substituted 2-{[(3-amino-pyrazin-2-yl)formamido]methyl}-1H-1,3-benzodiazol-3-ium derivatives as ENaC inhibitors for treating respiratory diseases” (ENTERPRISE THERAPEUTICS LIMITED, priority 2017, dated 2022):
# Structures can show the parent of a compound that is named as a salt.
# Assay: Bronchoalveolar lavage: compound levels in BAL after intratracheal administration
# Type: in vivo
# Conditions: bronchoalveolar lavage fluid (BAL), other: intratracheal, 0.1 mg/kg, rat, 0.1 mg/mL solution in 5% dextrose, 1 mL/Kg, lungs lavaged after 6 hours, LC/MS/MS
# Method: Example 9—Bronchoalveolar Lavage A 0.1 mg/mL solution of ENaC inhibitor in 5% dextrose was administered intratracheally to a rat weighing 225-250 g. A volume of 1 mL/Kg was used. After 6 hours, lungs were lavaged with 3×4 mL of sterile saline. A 1 mL aliquot was subsequently snap frozen. Lungs were excised, weighed and snap frozen. Compound levels in the BAL and lung tissue were subsequently determined using LC/MS/MS bioanalysis.
row,concentration at 6 h [ng/mL],SMILES
1,210,"CCn1c(CNC(=O)c2nc(Cl)c(N)nc2N)[n+](CC)c2ccc(C(=O)N3CCC(CN(C[C@H](O)[C@@H](O)[C@H](O)[C@H](O)CO)C[C@H](O)[C@@H](O)[C@H](O)[C@H](O)CO)CC3)cc21 [Example 3, 6-[4-({bis[(2S,3R,4R,5R)-2,3,4,5,6-pentahydroxyhexyl]amino}methyl)piperidine-1-carbonyl]-2-{[(3,5-diamino-6-chloropyrazin-2-yl)formamido]methyl}-1,3-diethyl-1H-1,3-benzodiazol-3-ium trifluoroacetic acid trifluoroacetate]"
2,251,"CCn1c(CNC(=O)c2nc(Cl)c(N)nc2N)[n+](CC)c2ccc(C(=O)NCCOCCOCCOCCN(C[C@H](O)[C@@H](O)[C@H](O)[C@H](O)CO)C[C@H](O)[C@@H](O)[C@H](O)[C@H](O)CO)cc21 [Example 6, 2-{[(3,5-diamino-6-chloropyrazin-2-yl)formamido]methyl}-1,3-diethyl-6-{[(14S,15R,16R,17R)-14,15,16,17,18-pentahydroxy-12-[(2S,3R,4R,5R)-2,3,4,5,6-pentahydroxyhexyl]-3,6,9-trioxa-12-azaoctadecan-1-yl]carbamoyl}-1H-1,3-benzodiazol-3-ium trifluoroacetic acid trifluoroacetate]"
3,645,"CCn1c(CNC(=O)c2nc(Cl)c(N)nc2N)[n+](CC)c2ccc(C(=O)NCCc3ccc(-c4ccc(CCN(C[C@H](O)[C@@H](O)[C@H](O)[C@H](O)CO)C[C@H](O)[C@@H](O)[C@H](O)[C@H](O)CO)cc4)cc3)cc21 [Example 7, 6-({2-[4′-(2-{bis[(2S,3R,4R,5R)-2,3,4,5,6-pentahydroxyhexyl]amino}ethyl)-[1,1′-biphenyl]-4-yl]ethyl}carbamoyl)-2-{[(3,5-diamino-6-chloropyrazin-2-yl)formamido]methyl}-1,3-diethyl-1H-1,3-benzodiazol-3-ium trifluoroacetic acid trifluoroacetate]"
4,471,"CCn1c(CNC(=O)c2nc(Cl)c(N)nc2N)[n+](CC)c2ccc(C(=O)NCCN(C[C@H](O)[C@@H](O)[C@H](O)[C@H](O)CO)C[C@H](O)[C@@H](O)[C@H](O)[C@H](O)CO)cc21 [Example 5, 6-[(2-{bis[(2S,3R,4R,5R)-2,3,4,5,6-pentahydroxyhexyl]amino}ethyl)carbamoyl]-2-{[(3,5-diamino-6-chloropyrazin-2-yl)formamido]methyl}-1,3-diethyl-1H-1,3-benzodiazol-3-ium trifluoroacetic acid trifluoroacetate]"
5,222,"CCn1c(CNC(=O)c2nc(Cl)c(N)nc2N)[n+](CC)c2ccc(C(=O)N3CCC(N(C[C@H](O)[C@@H](O)[C@H](O)[C@H](O)CO)C[C@H](O)[C@@H](O)[C@H](O)[C@H](O)CO)CC3)cc21 [Example 1, 6-(4-{bis[(2S,3R,4R,5R)-2,3,4,5,6-pentahydroxyhexyl]amino}piperidine-1-carbonyl)-2-{[(3,5-diamino-6-chloropyrazin-2-yl)formamido]methyl}-1,3-diethyl-1H-1,3-benzodiazol-3-ium trifluoroacetic acid trifluoroacetate]"
6,524,"CCn1c(CNC(=O)c2nc(Cl)c(N)nc2N)[n+](CC)c2ccc(C(=O)N3CC[C@@H](N(C[C@H](O)[C@@H](O)[C@H](O)[C@H](O)CO)C[C@H](O)[C@@H](O)[C@H](O)[C@H](O)CO)C3)cc21 [Example 4, 6-[(3R)-3-{bis[(2S,3R,4R,5R)-2,3,4,5,6-pentahydroxyhexyl]amino}pyrrolidine-1-carbonyl]-2-{[(3,5-diamino-6-chloropyrazin-2-yl)formamido]methyl}-1,3-diethyl-1H-1,3-benzodiazol-3-ium trifluoroacetic acid trifluoroacetate]"
